Results reported in US20200069775A1, “BRAIN OSTEOCALCIN RECEPTOR AND COGNITIVE DISORDERS” (The Trustees of Columbia University in the City of New York, priority 2017, published 2020).

Tested on: 16 month old WT mice
Assay: ICV delivery in aged WT mice, modified Novel Object Recognition test
Assay type: in vivo, mouse
Conditions: ICV 10 ng/hr, one month
Protocol: ICV pumps delivering (10 ng/hr) recombinant uncarboxylated full-length mouse osteocalcin were implanted in 16 month old WT mice. After an infusion period of one month, the mice were subjected to a modified version of the Novel Object Recognition test, to assay memory and hippocampal function. Briefly, mice were given five 5 minute exposures, with 3 minute resting intervals between exposures, to a novel arena containing two objects. During exposures 1-4, mice were habituated to these two objects, which elicited equal amounts of exploration. In the fifth exposure, one of the objects was replaced with a novel object.

For “osteocalcin: Recombinant osteocalcin bacterially produced, cleaved from the GST subunit; completely undercarboxylated at all three sites; full-length mouse osteocalcin (YLGASVPSPDPLEPTREQCELNPACDELSDQYGLKTAYKRIYGITI)”, the “discrimination between novel and constant objects” value was “able to discriminate between the novel and constant objects” and the “time exploring the novel object (Novel Object Recognition)” value was “spent less time exploring the novel object than mice treated with vehicle alone”.
